≈ marks a conversion by molar mass, not a printed value. Like-named read-outs stand apart in the source and are kept apart here.
Assays:
[1] = tested on: A-549; parameters: method as in PMID 23103294; conditions: A-549, MTT method; read-out: IC50 (cytotoxicity); cited from earlier work
[2] = tested on: SMMC-7721; parameters: method as in PMID 23103294; conditions: SMMC-7721, MTT method; read-out: IC50 (cytotoxicity); cited from earlier work
[3] = tested on: MCF-7; parameters: method as in PMID 23103294; conditions: MCF-7, MTT method; read-out: IC50 (cytotoxicity); cited from earlier work
[4] = tested on: SW-480; parameters: method as in PMID 23103294; conditions: SW-480, MTT method; read-out: IC50 (cytotoxicity); cited from earlier work
[5] = tested on: HL-60; parameters: method as in PMID 23103294; conditions: HL-60, MTT method; read-out: IC50 (cytotoxicity); cited from earlier work
[6] = tested on: HIV-1IIIB laboratory-adapted strain; experiment: Anti-HIV activity test: prevention of HIV-1 cytopathic effect in MT-4 cells (MTT); format: cell-based, Human immunodeficiency virus type 1; conditions: for IC50: Human immunodeficiency virus 1, MT4, read-out: IC50 (50% antiviral effect concentration); for EmaxAV (maximum antiviral effect %): inhibition of viral-induced cytopathic effect, HIV-1IIIB in MT-4 cells; for SI (selectivity index): ratio of CC50 to IC50, MT-4 cells
Procedure: Human immunodeficiency virus type 1 (HIV-1) IIIB (also referred to as HTLV-IIIB) was obtained through the NIH HIV Reagent Program, Division of AIDS, NIAID, NIH: Human Immunodeficiency Virus-1 IIIB, ARP-398, contributed by Dr. Robert Gallo. The effects of the test compounds in preventing the cytopathic effect resulting from HIV-1 replication were evaluated by the MTT colorimetric assay described above.
The laboratory-adapted strain of human immunodeficiency virus type 1 (HIV-1IIIB) obtained from the National Institutes of Health HIV Reagent Program was used in this experiment. A total of 50 µl of different concentrations ([…]) of the test compounds were seeded into 96-well flat-bottomed microtiter culture plates containing HIV-infected MT-4 cells.

[7] = tested on: human T-lymphocytic MT-4 cells; format: cell-based; conditions: for CC50 (50% cytotoxic concentration): MT-4 cells, MTT, mean ± S.E.M; for MNTC (maximum nontoxic concentration): human
Procedure: In this study, human T-lymphocytic MT-4 cells (ARP-120) were obtained through the National Institute of Health (NIH) HIV Reagent Program, Division of AIDS, National Institute of Allergy, and Infectious Diseases (NIAID), NIH: MT-4 Cells, ARP-120, contributed by Dr. Douglas Richman. The cytotoxicity test was conducted to evaluate the plant extracts' safety by measuring cell death caused by the plant extracts. The assay was conducted using the MTT colorimetric assay as described previously.
Four solvent fractions of twigs of C. dichogamus were examined for their ability to inhibit HIV-1 replication. In addition, the in vitro toxicity of these extracts to human T-lymphocytic MT-4 cells was investigated by MTT assay. […] The average absorbance value from three replicate determinations was used to express the viability of the cells as a percentage of negative controls, and the CC50 for each plant extract was determined graphically by plotting the % growth inhibition (Emaxc) against the plant extract concentration.

[8] = tested on: HIV; parameters: method as in PMID 8176401; conditions: cited from earlier work
[9] = tested on: Caco-2 human colon carcinoma cell lines; conditions: cited from earlier work
[10] = tested on: HIV; conditions: cell-based in vitro assay; literature report, no reference given; cited from earlier work
[11] = tested on: HIV; parameters: method as in PMID 14980692; conditions: cited from earlier work
[12] = HIV-1IIIB-infected MT-4 cells, MTT, mean ± S.E.M

In the case of maninsigin D, the IC50 [1] is given as > 40 µM, the IC50 [2] is given as > 40 µM and the IC50 [3] is given as > 40 µM. For the same compound, the IC50 [4] was > 40 µM and the IC50 [5] was > 40 µM.
With `Cc1ccnc2c1NC(=O)c1cccnc1N2C1CC1` [NVP, nevirapine] the IC50 [6, 12] was 0.24 ± 0.09 µg/mL (≈ 0.901 µM), the “EmaxAV (maximum antiviral effect %)” value ([6]; mean ± S.E.M) was 72.53 ± 0.47% and the “SI (selectivity index)” value [6] was 3.5. For the same compound, the “CC50 (50% cytotoxic concentration)” value [7] was 0.82 ± 0.0 µg/mL (≈ 3.08 µM) and the “MNTC (maximum nontoxic concentration)” value [7] was 0.57 ± 0.0 µg/mL.
In the case of `CC1(C)CC[C@]2(C(=O)O)CC[C@]3(C)C(=CC[C@@H]4[C@@]5(C)CC[C@H](O)C(C)(C)[C@@H]5CC[C@]43C)[C@@H]2C1` [oleanolic acid], the “anti-HIV activity (in words)” value [8] is listed as “exhibited anti-HIV activity”.
In the case of `C[C@H](Cn1cnc2c(N)ncnc21)OCP(=O)(O)O` [TDF, tenofovir], the IC50 [6, 12] is reported as 0.04 ± 0.01 µg/mL (≈ 0.139 µM), the “EmaxAV (maximum antiviral effect %)” value ([6]; mean ± S.E.M) is reported as 80.55 ± 0.46% and the “CC50 (50% cytotoxic concentration)” value [7] is reported as 6.73 ± 0.24 µg/mL (≈ 23.4 µM). The “MNTC (maximum nontoxic concentration)” value [7] was 4.92 ± 0.71 µg/mL.
For `Cc1cn([C@H]2C[C@H](N=[N+]=[N-])[C@@H](CO)O2)c(=O)[nH]c1=O` [AZT, zidovudine], the IC50 [6] was 0.002 µg/mL (≈ 0.00748 µM), the “EmaxAV (maximum antiviral effect %)” value ([6]; mean ± S.E.M) was 83.5 ± 0.57% and the “EmaxAV (maximum antiviral effect %)” value ([6]; mean ± S.E.M, listed as zidovudine) was 83.5%.
For `CC(=O)[C@@H]1CC[C@]2(C(=O)O)CC[C@]3(C)[C@H](CC[C@@H]4[C@@]5(C)CC[C@H](O)C(C)(C)[C@@H]5CC[C@]43C)[C@@H]12` [platanic acid], the “anti-HIV activity (in words)” value [8] is listed as “exhibited anti-HIV activity”.
In the case of 10-epi-manninsigin D, the decrease of viability ([9]; Caco-2, at a concentration of 100 mM) is given as 43%.
For furocrotinsulolide, the “cytotoxicity activity (in words)” value ([9]; Caco-2 cell line, at 30 μm) is listed as “modest cytotoxicity activity”.
In the case of `C=C(C)[C@@H]1CC[C@]2(C(=O)O)CC[C@]3(C)[C@H](CC[C@@H]4[C@@]5(C)CC[C@H](O)C(C)(C)[C@@H]5CC[C@]43C)[C@@H]12` [betulinic acid], the “anti-HIV activity (in words)” value [8] is listed as “exhibited anti-HIV activity”.
In the case of `CC1=CC[C@]2(C)CC(=O)[C@]3(C)C(=O)C=C(C(C)C)[C@@H]3[C@H]2CC1` [cyanthiwigin B], the “anti-HIV activity (in words)” value [10] is given as “Moderate anti-HIV activity”.
In the case of `Nc1nc(NC2CC2)c2ncn([C@H]3C=C[C@@H](CO)C3)c2n1` [ABC, abacavir], the IC50 [6, 12] is reported as 0.05 ± 0.031 µg/mL (≈ 0.175 µM), the “EmaxAV (maximum antiviral effect %)” value ([6]; mean ± S.E.M) is reported as 58.67 ± 0.43% and the “SI (selectivity index)” value [6] is reported as 5.0. The “CC50 (50% cytotoxic concentration)” value [7] was 0.26 ± 0.00 µg/mL (≈ 0.908 µM) and the “MNTC (maximum nontoxic concentration)” value [7] was 0.18 ± 0.03 µg/mL.
In the case of acetin, the “anti-HIV activity (in words)” value [11] is listed as “potent anti-HIV activity”.
